Measurements published in patent publication US12187709B2 (Genentech, Inc., priority 2021, dated 2025).

How the values were obtained:
[1] = biological target: Human Cbl-b (residues 40-426) (Homo sapiens (Human), UniProt Q13191); test: Cbl-b SPR assay; format: binding; conditions: for Fold of selectivity: C-cbl SPR Kd vs Cbl-b SPR Kd; for Kd: SPR, 20° C.
Procedure, shortened: (§1)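 Captured protein (1300-1500 RU for both isoforms) was probed in multi-cycle kinetics with 6 concentrations in 2-fold dilution, 60 s contact, 40 μl/min, dissociation 120-1200 s, double-referenced. Kinetic and affinity parameters came from a 1:1 binding fit. For slow off-rates, kd was set independently by a chaser-based method.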

c-Cbl = c-Cbl (Homo sapiens (Human), UniProt P22681); test: C-Cbl LCK Ub TR-FRET assay (C-cbl Lck HTRF); format: biochemical
Sequence of c-Cbl (P22681 47-435): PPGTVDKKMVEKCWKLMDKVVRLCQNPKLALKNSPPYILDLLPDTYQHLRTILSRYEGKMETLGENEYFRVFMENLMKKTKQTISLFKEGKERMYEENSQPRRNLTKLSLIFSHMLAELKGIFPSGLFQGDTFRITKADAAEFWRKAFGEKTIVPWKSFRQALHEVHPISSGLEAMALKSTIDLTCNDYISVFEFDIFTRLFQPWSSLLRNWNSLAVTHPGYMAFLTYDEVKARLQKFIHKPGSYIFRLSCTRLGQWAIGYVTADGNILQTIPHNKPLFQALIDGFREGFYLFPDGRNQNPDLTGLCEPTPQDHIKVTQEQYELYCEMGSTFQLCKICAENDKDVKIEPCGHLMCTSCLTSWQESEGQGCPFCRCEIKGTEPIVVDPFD
Procedure, shortened: (§2)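 After the ubiquitination reaction, detection mixture was added and plates incubated 20 min at room temperature before reading. IC50 values were calculated with wells lacking LCK as the low control and DMSO as the high control.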

Cbl-b = Cbl-b (Homo sapiens (Human), UniProt Q13191); test: Cbl-b LCK Ub TR-FRET assay (Cbl-b Lck HTRF); format: biochemical; conditions: for IC50: Cbl-b LCK Ub TR-FRET
Sequence of Cbl-b (Q13191 40-426): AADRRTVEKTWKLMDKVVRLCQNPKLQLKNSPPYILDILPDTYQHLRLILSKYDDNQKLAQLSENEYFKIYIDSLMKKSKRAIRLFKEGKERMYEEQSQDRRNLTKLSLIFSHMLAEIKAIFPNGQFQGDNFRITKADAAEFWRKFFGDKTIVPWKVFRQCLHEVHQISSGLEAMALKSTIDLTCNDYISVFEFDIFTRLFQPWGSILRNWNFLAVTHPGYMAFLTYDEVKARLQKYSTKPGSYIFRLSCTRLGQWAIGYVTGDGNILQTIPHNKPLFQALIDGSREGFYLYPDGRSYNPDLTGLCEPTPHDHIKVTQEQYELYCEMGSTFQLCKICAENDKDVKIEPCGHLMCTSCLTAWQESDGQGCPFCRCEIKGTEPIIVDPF
Procedure, shortened: as §2

c-Cbl (residues 47-435) = c-Cbl (residues 47-435) (Homo sapiens (Human), UniProt P22681); test: c-Cbl SPR assay; format: binding; conditions: 20° C.
Sequence of c-Cbl (residues 47-435) (P22681 47-435): as the sequence (P22681 47-435) above
Procedure, shortened: as §1

[2] = ratio C-cbl Lck HTRF IC50 / Cbl-b Lck HTRF IC50

Sequence of Human Cbl-b (residues 40-426) (Q13191 40-426): as the sequence (Q13191 40-426) above

Row | SMILES | Fold of selectivity [1] [×] | Kd [1] [nM] | IC50 (c-Cbl) [nM] | IC50 (Cbl-b) [nM] | fold-selectivity (Cbl-b over C-cbl) (Cbl-b; [2]) [x] | Kd (c-Cbl (residues 47-435)) [nM] | IC50 (Cbl-b; Example 121) [nM] | (fold-selectivity) Cbl-b and C-Cbl Selectivity (Cbl-b; [2]) [x]
1 | Cn1cnnc1C(c1cccc(N2Cc3c(cc(CNC4(C)CCC4)cc3C(F)(F)F)C2=O)c1)[C@H]1C[C@H](CC#N)C1 (single isomer, unassigned) [Compound 363] | 3.6 | 78 | 140 | 61 | 2.3 | 280 |  | 
2 | CO[C@H]1C[C@@](O)(C(c2cccc(N3Cc4c(cc(CNC5(C)CCC5)cc4C(F)(F)F)C3=O)c2)c2nncn2C)C1 (single isomer, unassigned) [Compound 369] | 7.2 | 210 | 1000 | 240 | 4.3 | 1500 |  | 
3 | Cn1cnnc1[C@@H](c1cccc(N2Cc3c(cc(CNC4(C)CCC4)cc3C(F)(F)F)C2=O)c1)[C@H]1C[C@H](C)C1 (single isomer, unassigned) [Compound 378] | 14 | 6.9 | 56 | 9.4 | 6.0 | 96 |  | 
4 | Cn1cnnc1[C@@H](c1cccc(N2Cc3c(cc(CNC4(C)CCC4)cc3C(F)(F)F)C2=O)c1)C1CC(OC(F)F)C1 (single isomer, unassigned) [Compound 388] | 9.7 | 100 | 870 | 120 | 7.6 | 970 |  | 
5 | Cn1cnnc1[C@H](c1cccc(N2Cc3c(cc(CNC4(C)CCC4)cc3C(F)(F)F)C2=O)c1)C1CC(OC(F)F)C1 (single isomer, unassigned) [Compound 389] | 4.4 | 2.9 | 8.9 | 5.1 | 1.7 | 13 |  | 
6 | Cn1cnnc1[C@H](c1cccc(N2Cc3c(cc(CNC4(C)CCC4)cc3C(F)(F)F)C2=O)c1)C1CC(OC(F)F)C1 (single isomer, unassigned) [Compound 390] | 3.0 | 0.6 | 5.5 | 5.5 | 1.0 | 1.7 |  | 
7 | CC[C@@](O)(c1cccc(N2Cc3c(cc(CNC4(C)CCC4)cc3C(F)(F)F)C2=O)c1)c1nncn1C (single isomer, unassigned) [Compound 392] | 5.1 | 7.5 | 14 | 10 | 1.4 | 38 |  | 
8 | CC[C@](F)(c1cccc(N2Cc3c(cc(CNC4(C)CCC4)cc3C(F)(F)F)C2=O)c1)c1nncn1C (single isomer, unassigned) [Compound 393] | 3.5 | 150 | 460 | 190 | 2.4 | 540 |  | 
9 | Cn1cnnc1[C@@H](c1cccc(N2Cc3c(cc(CNC4(C)CCC4)cc3C(F)(F)F)C2=O)c1)[C@H]1C[C@H](OC(F)(F)F)C1 (single isomer, unassigned) [Compound 395] | 7.1 | 130 | 160 | 75 | 2.1 | 920 |  | 
10 | Cn1cnnc1[C@@H](c1cccc(N2Cc3c(cc(CNC4(C)CCC4)cc3C(F)(F)F)C2=O)c1)C1CC(OC(F)(F)F)C1 (single isomer, unassigned) [Compound 398] | 4.5 | 2 | 6.5 | 5.8 | 1.1 | 9 |  | 
11 | CC(=O)N(C)[C@H](c1cccc(N2Cc3c(cc(CNC4(C)CCC4)cc3C(F)(F)F)C2=O)c1)c1nncn1C (single isomer, unassigned) [Compound 399] | 17 | 490 | 6000 | 530 | 12 | 8100 |  | 

Continued, values first:

Row | Fold of selectivity [1] [×] | Kd [1] [nM] | IC50 (c-Cbl) [nM] | IC50 (Cbl-b) [nM] | fold-selectivity (Cbl-b over C-cbl) (Cbl-b; [2]) [x] | Kd (c-Cbl (residues 47-435)) [nM] | IC50 (Cbl-b; Example 121) [nM] | (fold-selectivity) Cbl-b and C-Cbl Selectivity (Cbl-b; [2]) [x] | SMILES
12 | 4.4 | 0.55 | 3.3 | 2.5 | 1.3 | 2.4 |  |  | Cn1cnnc1C(c1cccc(N2Cc3c(cc(CNC4(C)CCC4)cc3C(F)(F)F)C2=O)c1)[C@H]1C[C@H](CC#N)C1 (single isomer, unassigned) [Compound 364]
13 | 6 | 0.85 | 5.9 | 4.8 | 1.2 | 7.2 |  |  | Cn1cnnc1C(c1cccc(N2Cc3c(cc(CNC4(C)CCC4)cc3C(F)(F)F)C2=O)c1)[C@H]1C[C@@H](CC#N)C1 (single isomer, unassigned) [Compound 365]
14 | 16 | 46 | 490 |  | 9.0 | 790 |  |  | Cn1cnnc1[C@H](c1cccc(N2Cc3c(cc(CNC4(C)CCC4)cc3C(F)(F)F)C2=O)c1)[C@H]1C[C@H](C)C1 (single isomer, unassigned) [Compound 376, 2-(3-((S)-(4-methyl-4H-1,2,4-triazol-3-yl)((1r,3S)-3-methylcyclobutyl)methyl)phenyl)-6-(((1-methylcyclobutyl)amino)methyl)-4-(trifluoromethyl)isoindolin-1-one]
15 | 11 | 240 | 2500 | 240 | 11 | 2600 |  |  | Cn1cnnc1[C@H](c1cccc(N2Cc3c(cc(CNC4(C)CCC4)cc3C(F)(F)F)C2=O)c1)[C@H]1C[C@@H](C)C1 (single isomer, unassigned) [Compound 377]
16 | 6.7 | 0.9 | 9.5 | 6.8 | 1.6 | 6 |  |  | Cn1cnnc1[C@@H](c1cccc(N2Cc3c(cc(CNC4(C)CCC4)cc3C(F)(F)F)C2=O)c1)[C@H]1C[C@@H](C)C1 (single isomer, unassigned) [Compound 379]
17 | 5.0 | 0.8 | 7.1 | 6 | 1.2 | 4 |  |  | Cn1cnnc1[C@@H](c1cccc(N2Cc3c(cc(CNC4(C)CCC4)cc3C(F)(F)F)C2=O)c1)C1(F)COC1 (single isomer, unassigned) [Compound 380]
18 | 6.0 | 2.7 | 16 | 8.8 | 1.9 | 16 |  |  | Cn1cnnc1[C@H](c1cccc(N2Cc3c(cc(CNC4(C)CCC4)cc3C(F)(F)F)C2=O)c1)C1(F)COC1 (single isomer, unassigned) [Compound 381]
19 | 0.8 | 190 | 450 | 150 | 3.0 | 150 |  |  | CC(=O)C1CC([C@H](c2cccc(N3Cc4c(cc(CNC5(C)CCC5)cc4C(F)(F)F)C3=O)c2)c2nncn2C)C1 (single isomer, unassigned) [Compound 382]
20 | 7.7 | 2.6 | 24 | 19 | 1.3 | 20 |  |  | CC(=O)C1CC([C@@H](c2cccc(N3Cc4c(cc(CNC5(C)CCC5)cc4C(F)(F)F)C3=O)c2)c2nncn2C)C1 (single isomer, unassigned) [Compound 383]
21 | 5.6 | 7 | 66 | 24 | 2.8 | 39 |  |  | CC(=O)C1CC([C@@H](c2cccc(N3Cc4c(cc(CNC5(C)CCC5)cc4C(F)(F)F)C3=O)c2)c2nncn2C)C1 (single isomer, unassigned) [Compound 384]
22 | 0.7 | 560 | 720 | 260 | 2.8 | 390 |  |  | CC(=O)C1CC([C@H](c2cccc(N3Cc4c(cc(CNC5(C)CCC5)cc4C(F)(F)F)C3=O)c2)c2nncn2C)C1 (single isomer, unassigned) [Compound 385]
23 | 9.5 | 200 | 1000 | 130 | 7.8 | 1900 |  |  | Cn1cnnc1[C@@H](c1cccc(N2Cc3c(cc(CNC4(C)CCC4)cc3C(F)(F)F)C2=O)c1)C1CC(OC(F)F)C1 (single isomer, unassigned) [Compound 387]
24 | 2.4 | 0.65 | 3.8 | 4.6 | 0.8 | 1.4 |  |  | CC[C@@](F)(c1cccc(N2Cc3c(cc(CNC4(C)CCC4)cc3C(F)(F)F)C2=O)c1)c1nncn1C (single isomer, unassigned) [Compound 394]
25 | 3.4 | 890 | 2500 | 580 | 4.3 | 2800 |  |  | CC(=O)N1CC([C@@H](c2cccc(N3Cc4c(cc(CNC5(C)CCC5)cc4C(F)(F)F)C3=O)c2)c2nncn2C)C1 (single isomer, unassigned) [Compound 402]
26 | 16 | 270 | 5700 |  |  | 4300 | 390 | 14 | C[C@H](NC1(C)CCC1)c1cc2c(c(C(F)F)c1)CN(c1cccc([C@@H](c3nncn3C)C3COC3)c1)C2=O (single isomer, unassigned) [Compound 407]
